Drawing on ChEMBL document CHEMBL1151285, “Dammarane triterpenes from the hypocotyls and fruits of Ceriops tagal” (J Nat Prod, 2005), this text covers IC50 for two compounds.

Format in all cases: functional, cell-based
The test system of assay [1] is NCI-H187. Description: Cytotoxicity against human NCI-H187 cells by colorimetric assay.
Assay [2] can be described thus: Cytotoxicity against human BC cells by colorimetric assay.
The test system of assay [3] is KB. Description: Cytotoxicity against human KB cells by colorimetric assay.

≈ marks a conversion by molar mass, not a printed value.

`Cc1c2ccncc2c(C)c2c1[nH]c1ccccc12` [ELLIPTECINE]: the half-inhibitory concentration (IC50) in assay [1], in assay [2] and in assay [3] was 0.3 µg/mL (≈ 1.22 µM) throughout.
Regarding `C=C(C)[C@@H]1CC[C@]2(C(=O)O)CC[C@]3(C)[C@H](CC[C@@H]4[C@@]5(C)CC[C@H](OC(=O)/C=C/c6ccc(O)c(OC)c6)C(C)(C)[C@@H]5CC[C@]43C)[C@@H]12`, the IC50 in assay [1] stood at 1.8 µg/mL (≈ 2.84 µM); in assay [2] it was 3 µg/mL (≈ 4.74 µM); in assay [3], 3.8 µg/mL (≈ 6 µM).
